Measurements: patent publication US8691837B2, “Substituted imidazo ring systems and methods” (3M Innovative Properties Company, priority 2003, dated 2014)
Structures can show the parent of a compound that is named as a salt.

Row | SMILES | melting point [°C]
1 | CCCc1nc2c(N)nc3ccccc3c2n1CCCCCCCCCCCC(=O)c1ccccc1 (as salt: hydrochloride) [Example 16, 12-(4-Amino-2-propyl-1H-imidazo[4,5-c]quinolin-1-yl)-1-phenyldodecan-1-one hydrochloride] | 195 to 196
2 | CCCc1nc2c(N)nc3ccccc3c2n1CCCCCCCCCCCC(=O)N(C)OC (as salt: hydrochloride) [Example 21, 12-(4-Amino-2-propyl-1H-imidazo[4,5-c]quinolin-1-yl)-N-methoxy-N-methyldodecanamide hydrochloride] | 156 to 158
3 | CCCCc1nc2c(N)nc3ccccc3c2n1CCCC(C)=O [Example 2, 5-(4-Amino-2-butyl-1H-imidazo[4,5-c]quinolin-1-yl)pentan-2-one] | 173 to 176
4 | CCCCc1nc2c(N)nc3ccccc3c2n1CCCCCC(=O)c1ccccc1 [Example 4, 6-(4-Amino-2-butyl-1H-imidazo[4,5-c]quinolin-1-yl)-1-phenylhexan-1-one] | 149 to 151
5 | Nc1nc2ccccc2c2c1ncn2CCCCCC(=O)c1ccccc1 [Example 5, 6-(4-Amino-1H-imidazo[4,5-c]quinolin-1-yl)-1-phenylhexan-1-one] | 163 to 165
6 | Cc1nc2c(N)nc3ccccc3c2n1CCCC1(C)OCCO1 [Example 6, 2-Methyl-1-[3-(2-methyl-[1,3]dioxolan-2-yl)propyl]-1H-imidazo[4,5-c]quinolin-4-amine] | 193 to 195
7 | CCc1nc2c(N)nc3ccccc3c2n1CCCC1(C)OCCO1 [Example 7, 2-Ethyl-1-[3-(2-methyl-[1,3]dioxolan-2-yl)propyl]-1H-imidazo[4,5-c]quinolin-4-amine] | 195 to 196.5
8 | CCCc1nc2c(N)nc3ccccc3c2n1CCCC1(C)OCCO1 [Example 8, 1-[3-(2-Methyl-[1,3]dioxolan-2-yl)propyl]-2-propyl-1H-imidazo[4,5-c]quinolin-4-amine] | 184 to 186
9 | CCCCc1nc2c(N)nc3ccccc3c2n1CCCC1(C)OCCO1 [Example 9, 2-Butyl-1-[3-(2-methyl-[1,3]dioxolan-2-yl)propyl]-1H-imidazo[4,5-c]quinolin-4-amine] | 169 to 171.5
10 | CCOCc1nc2c(N)nc3ccccc3c2n1CCCC1(C)OCCO1 [Example 10, 2-Ethoxymethyl-1-[3-(2-methyl-[1,3]dioxolan-2-yl)propyl]-1H-imidazo[4,5-c]quinolin-4-amine] | 150 to 152
11 | CC(=O)CCCn1c(C)nc2c(N)nc3ccccc3c21 [Example 11, 5-(4-Amino-2-methyl-1H-imidazo[4,5-c]quinolin-1-yl)pentan-2-one] | 194 to 196
12 | CCc1nc2c(N)nc3ccccc3c2n1CCCC(C)=O [Example 12, 5-(4-Amino-2-ethyl-1H-imidazo[4,5-c]quinolin-1-yl)pentan-2-one] | 206 to 208
13 | CCCc1nc2c(N)nc3ccccc3c2n1CCCC(C)=O [Example 13, 5-(4-Amino-2-propyl-1H-imidazo[4,5-c]quinolin-1-yl)pentan-2-one] | 176 to 177
14 | CCOCc1nc2c(N)nc3ccccc3c2n1CCCC(C)=O [Example 14, 5-(4-Amino-2-ethoxymethyl-1H-imidazo[4,5-c]quinolin-1-yl)pentan-2-one] | 173 to 175
15 | CCCc1nc2c(N)nc3ccccc3c2n1CCCCCC(C)=O [Example 15, 7-(4-Amino-2-propyl-1H-imidazo[4,5-c]quinolin-1-yl)heptan-2-one] | 161 to 163
16 | CCCc1nc2c(N)nc3ccccc3c2n1CCCC(=O)CC(C)C [Example 17, 1-(4-Amino-2-propyl-1H-imidazo[4,5-c]quinolin-1-yl)-6-methylheptan-4-one] | 136 to 138
17 | CCCCCCC(=O)CCCn1c(CCC)nc2c(N)nc3ccccc3c21 [Example 18, 1-(4-Amino-2-propyl-1H-imidazo[4,5-c]quinolin-1-yl)decan-4-one] | 111 to 113
18 | CCCc1nc2c(N)nc3ccccc3c2n1CCCCCC(=O)N(C)OC [Example 19, 6-(4-Amino-2-propyl-1H-imidazo[4,5-c]quinolin-1-yl)-N-methoxy-N-methylhexanamide] | 134 to 135

Row | SMILES | melting point [°C]
19 | CCCc1nc2c(N)nc3ccccc3c2n1CCCC(=O)N(C)OC [Example 20, 4-(4-Amino-2-propyl-1H-imidazo[4,5-c]quinolin-1-yl)-N-methoxy-N-methylbutyramide] | 163 to 165
20 | Cc1nc2c(N)nc3ccccc3c2n1CC(C)(C)CC1(C)OCCO1 [Example 22, 1-[2,2-Dimethyl-3-(2-methyl-[1,3]dioxolan-2-yl)propyl]-2-methyl-1H-imidazo[4,5-c]quinolin-4-amine] | 209 to 211
21 | CCCc1nc2c(N)nc3ccccc3c2n1CC(C)(C)CC1(C)OCCO1 [Example 23, 1-[2,2-Dimethyl-3-(2-methyl-[1,3]dioxolan-2-yl)propyl]-2-propyl-1H-imidazo[4,5-c]quinolin-4-amine] | 186 to 188
22 | CC(=O)CC(C)(C)Cn1c(C)nc2c(N)nc3ccccc3c21 [Example 24, 5-(4-Amino-2-methyl-1H-imidazo[4,5-c]quinolin-1-yl)-4,4-dimethylpentan-2-one] | 223 to 225
23 | CCCc1nc2c(N)nc3ccccc3c2n1CC(C)(C)CC(C)=O [Example 25, 5-(4-Amino-2-propyl-1H-imidazo[4,5-c]quinolin-1-yl)-4,4-dimethylpentan-2-one] | 178 to 180
24 | CCCc1nc2c(N)nc3ccccc3c2n1CCC(=O)OCC [Example 26, Ethyl 3-(4-amino-2-propyl-1H-imidazo[4,5-c]quinolin-1-yl)propionate] | 156 to 157
25 | CCCc1nc2c(N)nc3ccccc3c2n1CCCC(=O)OCC [Example 27, Ethyl 4-(4-amino-2-propyl-1H-imidazo[4,5-c]quinolin-1-yl)butyrate] | 154 to 156
26 | CCCc1nc2c(N)nc3ccccc3c2n1CCCCCC(=O)OCC [Example 28, Ethyl 6-(4-amino-2-propyl-1H-imidazo[4,5-c]quinolin-1-yl)hexanoate] | 112 to 113
27 | CCCc1nc2c(N)nc3ccccc3c2n1CC(OCC)OCC [Example 29, 1-(2,2-Diethoxyethyl)-2-propyl-1H-imidazo[4,5-c]quinolin-4-amine] | 148 to 150
28 | CCCc1nc2c(N)nc3ccccc3c2n1CCC(OCC)OCC [Example 30, 1-(3,3-Diethoxypropyl)-2-propyl-1H-imidazo[4,5-c]quinolin-4-amine] | 148 to 150
29 | CC(C)(Cn1cnc2c(N)nc3ccccc3c21)CC1(C)OCCO1 [Example 31, 1-[2,2-Dimethyl-3-(2-methyl[1,3]dioxolan-2-yl)propyl]-1H-imidazo[4,5-c]quinolin-4-amine] | 153 to 155
30 | CC(=O)CC(C)(C)Cn1cnc2c(N)nc3ccccc3c21 [Example 32, 5-(4-Amino-1H-imidazo[4,5-c]quinolin-1-yl)-4,4-dimethylpentan-2-one] | 214 to 216
31 | CCCc1nc2c(N)nc(C)c(C)c2n1CCCC(C)=O [Example 33, 5-(4-Amino-6,7-dimethyl-2-propyl-1H-imidazo[4,5-c]pyridin-1-yl)pentan-2-one] | 148.5 to 149.5
32 | CCOCc1nc2c(N)nc3ccccc3c2n1CCCC(=O)OCC [Example 34, Ethyl 4-[4-amino-2-(ethoxymethyl)-1H-imidazo[4,5-c]quinolin-1-yl]butanoate] | 129 to 131
33 | CCOCc1nc2c(N)nc3ccccc3c2n1CCCC(=O)N(C)OC [Example 35, 4-[4-Amino-2-(ethoxymethyl)-1H-imidazo[4,5-c]quinolin-1-yl]-N-methoxy-N-methylbutanamide] | 163 to 165
34 | CCCc1nc2c(N)nc3ccccc3c2n1CCCCC(=O)N(C)OC [Example 36, 5-(4-Amino-2-propyl-1H-imidazo[4,5-c]quinolin-1-yl)-N-methoxy-N-methylpentanamide] | 150 to 151
35 | CCOCc1nc2c(N)nc3ccccc3c2n1CC(=O)CC [Example 37, 1-[4-Amino-2-(ethoxymethyl)-1H-imidazo[4,5-c]quinolin-1-yl]butan-2-one] | 187 to 188
